Literature values, collected in article PMC8198792, “Prediction of Anticancer Peptides with High Efficacy and Low Toxicity by Hybrid Model Based on 3D Structure of Peptides” (International Journal of Molecular Sciences, 2021).
Read-outs that look alike come from different tables or passages of the source.

Tested on: cancer cell lines
Parameters: method as in 6 sources, ref CancerPPD [45] and SATPdb ||| ref CancerPPD/SATPdb ||| ref CancerPPD, SATPdb, Swissprot (PDB) ||| ref CancerPPD/SATPdb/Swissprot(PDB) ||| ref CancerPPD / SATPdb ||| ...
Settings: cited from earlier work
Excerpt: Supplement ijms-22-05630-s001.zip/ACPs(seguence).xlsx, sheet "D1" | column: Activity || Supplement ijms-22-05630-s001.zip/ACPs(seguence).xlsx, sheet "D2" | column: Activity || Supplement ijms-22-05630-s001.zip/ACPs(seguence).xlsx, sheet "D3" | column: Activity || (+ 2 further places)

[1] = ACPs dataset D5 (sheet "D5"), label 1 = ACP (positive set), 0 = non-ACP (negative set), ref CancerPPD [45] and SATPdb
[2] = ACPs dataset D3 (supplement sheet "D3"), 1 = ACP, 0 = non-ACP, ref CancerPPD [45] and SATPdb
[3] = ACPs dataset D4 (sheet "D4"), label 1 = ACP (CancerPPD ID), 0 = non-ACP (non-anticancer AMP, SATPdb ID), ref CancerPPD [45] and SATPdb
[4] = ACPs dataset D1, 1 = ACP (positive), 0 = non-ACP (negative), label taken from databases, ref CancerPPD [45] and SATPdb
[5] = ACPs dataset D4 (sheet "D4"), label 1 = ACP, experimentally validated ACPs, ref CancerPPD [45] and SATPdb
[6] = ACPs dataset D5 (sheet "D5"), label 1 = ACP (positive set), sequences with CancerPPD/SATPdb ID, ref CancerPPD, SATPdb
[7] = ACPs dataset sheet D2, 1 = ACP (CancerPPD/SATPdb ID), 0 = non-ACP (Swissprot/PDB ID), ref CancerPPD, SATPdb, Swissprot (PDB)
[8] = ACPs dataset D3 (sheet "D3"), label 1 = ACP, 0 = non-ACP, ref CancerPPD/SATPdb
[9] = ACPs dataset D4 (sheet "D4"), label 1 = ACP, 0 = non-ACP, ref CancerPPD / SATPdb
[10] = ACPs dataset D5, sheet "D5", label 1 = ACP, 0 = non-ACP, ref CancerPPD [45] and SATPdb
[11] = ACPs dataset D1, label 1 = ACP, 0 = non-ACP (non-anticancer AMPs from SATPdb), ref CancerPPD/SATPdb
[12] = ACPs dataset D2 (supplement ACPs(seguence).xlsx, sheet D2), dataset label 1/0 (ACP / non-ACP), entries identified by Swissprot(PDB ID), ref CancerPPD/SATPdb/Swissprot(PDB)

Substance: FVQWFSKFLGRIL [6GS5 NMR - A 1-13]
- Activity [1]: 0

Substance: kWkSFLkTFkSLKkTVLHTLLkAISS [compound 1231]
- Activity [2]: 1
- Activity [3]: 1
- Activity [1]: 1

Substance: GLFDIIKKIAESF [compound 1252]
- Activity [2]: 1
- Activity [3]: 1
- Activity [1]: 1

Substance: DRSTREPIYMSTI [satpdb20500]
- Activity [4]: 1
- Activity [5]: 1
- Activity [6]: 1
- Activity [7]: 1

Substance: VKLLVyPLKVKLyP [satpdb13876]
- Activity [8]: 0
- Activity [9]: 0
- Activity [10]: 0

Substance: MWKWFHNVLSWWWLLADKRPARDYNRK [compound 3074]
- Activity [4]: 1
- Activity [5]: 1
- Activity [6]: 1
- Activity [7]: 1

Substance: KLCGETCFKFKCYTPGCSCSYPFCK [compound 4395]
- Activity [4]: 1
- Activity [5]: 1
- Activity [6]: 1
- Activity [7]: 1

Substance: FLGMIPGLIGGLISAFK [compound 3125]
- Activity [2]: 1
- Activity [5]: 1
- Activity [6]: 1

Substance: KILRGVAKKILRTFLRRISKDILTGKK [compound 3329]
- Activity [2]: 1
- Activity [3]: 1
- Activity [1]: 1

Substance: RGGRLCYARRRFAVCVGR [satpdb14374]
- Activity [8]: 0
- Activity [9]: 0
- Activity [10]: 0

Substance: FLPMLAGLAASMVPKLVCLITKKC [satpdb11064]
- Activity [4]: 0
- Activity [3]: 0

Substance: ALWKTLLKKVLKAAAK [satpdb14616]
- Activity [8]: 0
- Activity [9]: 0
- Activity [10]: 0

Substance: LLKKLLKKLLKK [satpdb13272]
- Activity [8]: 0
- Activity [9]: 0
- Activity [10]: 0

Substance: INLKAIAAMAKKL [satpdb11272]
- Activity [4]: 0
- Activity [3]: 0

Substance: CKGRGKRCREKQRPSDKPRR [satpdb11644]
- Activity [4]: 1
- Activity [5]: 1
- Activity [6]: 1
- Activity [7]: 1

Substance: KRGFGKKLRKRLKKFRNSIKKRLKNFNVVIPIPLPG [satpdb11105]
- Activity [4]: 0
- Activity [3]: 0

Substance: GLLGSIFGAGKKIACALSGLC [satpdb11926]
- Activity [11]: 0
- Activity [3]: 0

Substance: KWkSFLkTFkSLKkTVLHTLLkAISS [compound 3764]
- Activity [2]: 1
- Activity [3]: 1
- Activity [1]: 1

Substance: GPWGPCSGSCGPGRRLRRR [satpdb14705]
- Activity [4]: 1
- Activity [5]: 1
- Activity [6]: 1
- Activity [7]: 1

Substance: WDLVVVSAGVAEVGV [satpdb12938]
- Activity [4]: 1
- Activity [5]: 1
- Activity [6]: 1
- Activity [7]: 1

Substance: KWKLFKKIPLKKF [compound 1122]
- Activity [2]: 1
- Activity [3]: 1
- Activity [1]: 1

Substance: ILGKIWKIKKLF [satpdb10262]
- Activity [4]: 0
- Activity [3]: 0

Substance: KWKSFIKKAKTSFLHSAKKF [satpdb14273]
- Activity [8]: 0
- Activity [9]: 0
- Activity [10]: 0

Substance: GWIRDFGKRIERVGQHTRDATIQTIAVAQQAANVAATLKG [satpdb12541]
- Activity [11]: 0
- Activity [3]: 0

Substance: KWKSFLKTFKSLKkTVLHTLLkAISS [compound 3766]
- Activity [2]: 1
- Activity [3]: 1
- Activity [1]: 1

Substance: VLSIVACSSGCGSGKTAASCVETCGNRCFTNVGSLC [satpdb10613]
- Activity [4]: 0
- Activity [3]: 0

Substance: IFGAILPLAL GALKNLIK [2N0O NMR - A 1-18]
- Activity [1]: 0
- Activity [7]: 0

Substance: KILRGVAKKIMRTFLRRILTGKK [compound 3321]
- Activity [2]: 1
- Activity [3]: 1
- Activity [1]: 1

Substance: GSIPCEGSCVFIPCISAIIGCSCSNKVCYKN [compound 4379]
- Activity [4]: 1
- Activity [5]: 1
- Activity [6]: 1
- Activity [7]: 1

Substance: FLPIVGRLISGLL [satpdb10939]
- Activity [2]: 0
- Activity [9]: 0
- Activity [10]: 0

Substance: VVGSPSAQDEASPL [satpdb16227]
- Activity [4]: 1
- Activity [5]: 1
- Activity [6]: 1
- Activity [7]: 1

Substance: GTPCGESCVYIPCFTAVVGCTCKDKVCYLN [satpdb10441]
- Activity [11]: 0
- Activity [3]: 0

Substance: TSWSQCSKTCGTGISTRV [satpdb19109]
- Activity [4]: 1
- Activity [5]: 1
- Activity [6]: 1
- Activity [7]: 1

Substance: PIDERLRTCERLSYP [satpdb14897]
- Activity [4]: 1
- Activity [5]: 1
- Activity [6]: 1
- Activity [7]: 1

Substance: FDVNSHTTPCGPVTCSGAQMCEVDKCVCSDLHCKVKCEHGFKKDDNGCEYACICADAPQ [1EJA X-ray 2.70 B 1-59]
- Activity [12]: 0
- Activity [10]: 0

Substance: LTAEHYAAQATS [compound 4580]
- Activity [4]: 1
- Activity [5]: 1
- Activity [6]: 1
- Activity [7]: 1

Substance: MRKEFHNVLSSGQLLADKRPARDYNRK [compound 3072]
- Activity [4]: 1
- Activity [5]: 1
- Activity [6]: 1
- Activity [7]: 1

Substance: KWKLFKKIGIGKFLHSATTF [compound 1188]
- Activity [2]: 1
- Activity [3]: 1
- Activity [1]: 1

Substance: ALWKDILKNVGKAAGKAVLNTVTDMVNQ [compound 1707]
- Activity [2]: 1
- Activity [5]: 1
- Activity [6]: 1

Substance: KWKSFIKKLTDKFLHSAKKF [satpdb12512]
- Activity [8]: 0
- Activity [9]: 0
- Activity [10]: 0

Substance: RGGRLTYTRpRFTVTVGR [satpdb14856]
- Activity [8]: 0
- Activity [9]: 0
- Activity [10]: 0

Substance: NVWKKILGKIIKVVK [compound 4347]
- Activity [2]: 1
- Activity [3]: 1
- Activity [1]: 1

Substance: GRLKRLRKKLKKLLKKLS [satpdb12346]
- Activity [8]: 0
- Activity [9]: 0
- Activity [10]: 0

Substance: KVKVKVKVpPTKVKVKVK [compound 3218]
- Activity [2]: 1
- Activity [3]: 1
- Activity [1]: 1

Substance: KVNANAIKKGGKAIGKGFKVISAASTAHDVYEHIKNRRH [satpdb12894]
- Activity [11]: 0
- Activity [9]: 0

Substance: ILPLKLPLLPLRR [satpdb14372]
- Activity [8]: 0
- Activity [9]: 0
- Activity [10]: 0

Substance: GPWAPCSASCGGGSQSRS [satpdb28727]
- Activity [4]: 1
- Activity [5]: 1
- Activity [6]: 1
- Activity [7]: 1

Substance: GCPRILMRCKQDSDCLAGCVCGPNGFCGSP [1H9H X-ray 1.50 I 1-30]
- Activity [1]: 0
- Activity [7]: 0

Substance: MAELQERIRHFWKESRRAFLVTKKPNWATYKRAAKITGLGIILIGLIGMLIRIVGILILGG [3MP7 X-ray 2.90 B 1-61]
- Activity [12]: 0
- Activity [10]: 0

Substance: MAKWRCKICGYIYDEDEGDPDNGISPGTKFEDLPDDWVCPLCGAPKSEFERIE [1YK5 X-ray 1.79 A/B/C/D 1-53]
- Activity [12]: 0
- Activity [10]: 0

Substance: CTTGPCCRQCKLKPAGTTCWKTSLTSHYCTGKSCDCPLYPG [1MPZ NMR - A 1-41]
- Activity [12]: 0
- Activity [1]: 0

Substance: DFKLFAVTIKYR [satpdb15826]
- Activity [4]: 1
- Activity [5]: 1
- Activity [6]: 1
- Activity [7]: 1

Substance: TSWSPCSASCGGGHYQRTR [satpdb16504]
- Activity [4]: 1
- Activity [5]: 1
- Activity [6]: 1
- Activity [7]: 1

Substance: MISDEQLNSLAITFGIVMMTLIVIYHAVDSTMSPKN [1RKL NMR - A 1-36]
- Activity [12]: 0
- Activity [1]: 0

Substance: GLFDVIKKVAAVIGGL [compound 4066]
- Activity [2]: 1
- Activity [3]: 1
- Activity [1]: 1

Substance: RLGDILQKAREKIEGGLKKLVQKIKDFFGKFAPRTES [satpdb11337]
- Activity [4]: 0
- Activity [3]: 0

Substance: LPKWKVFKKIEKVGRNIRNGIVKAGPAIAVLGEAKALG [compound 4275]
- Activity [2]: 1
- Activity [3]: 1
- Activity [1]: 1

Substance: GIGKFLKKAKKFAKAFVKIINN [compound 1117]
- Activity [2]: 1
- Activity [3]: 1
- Activity [1]: 1

Substance: GSIPACGESCFKGKCYTPGCSCSKYPLCAKN [2GJ0 NMR - A 1-31]
- Activity [1]: 0
- Activity [7]: 0

Substance: RGDLLRHVVKILEKYL [compound 1672]
- Activity [4]: 1
- Activity [5]: 1
- Activity [6]: 1
- Activity [7]: 1
